Data on three compounds can be found in patent US20250302974A1, “LECTIN-DRUG CONJUGATES” (UNICHEM LABORATORIES LIMITED, priority 2021, published 2025).

This assay has as its target Sclerotium rolfsii lectin recombinant variant Rec-2, SEQ ID NO: 2 (Agroathelia rolfsii, UniProt A0A0M3KL30). The assay can be described thus: O-Glycan array binding study (94 glycans).

As to `CC(=O)N[C@H]1[C@H](OC[C@H]2OC(O)[C@H](NC(C)=O)[C@@H](O[C@@H]3O[C@H](CO)[C@H](O)[C@H](O)[C@H]3O)[C@H]2O)O[C@H](CO)[C@@H](O)[C@@H]1O` (stereo partly drawn) [core 2], the “Estimated Kd” value is listed as 0.212 ug/m and the glycan binding result was “Main binding motifs”.
On the same counts, the results for Sialyl T antigen are 0.670 to 1.756 ug/m and “Main binding motifs”.
On the same counts, the results for `CC(=O)N[C@@H]1[C@@H](O[C@@H]2O[C@H](CO)[C@H](O)[C@H](O)[C@H]2O)[C@@H](O)[C@@H](CO)O[C@@H]1O` [T antigen, Galβ1-3GalNAcα] are 0.319 ug/m and “Main binding motifs”.
